The values that follow come from patent publication US20120095060A1, “METHODS AND COMPOSITIONS OF MITOGEN-ACTIVATED PROTEIN KINASE (MAPK) PATHWAY INHIBITORS FOR TREATING PULMONARY FIBROSIS” (priority 2010, published 2012).

Experiment [1] concerns TGF-α-induced pulmonary fibrosis. The following applies: previous study; cited from earlier work.
In experiment [2] the test system is ERK1/2. The following applies: previously shown; cited from earlier work.
For experiment [3], the system named is established TGF-α-induced pulmonary fibrosis. Kind of experiment: Rescue study of established fibrosis: lung histology (trichrome stain). It counts as in vivo. The following applies: CCSP/TGF-α mice, 8 weeks total Dox, treatment during last 4 weeks. How it is done:
To determine whether the ERK/MAPK pathway mediates the progression of established fibrosis, CCSP/TGFα mice were treated with ARRY following 4 weeks of Dox, while remaining on Dox for an additional 4 weeks (8 weeks total Dox, 4 week ARRY). Controls included CCSP/TGFα mice treated with vehicle while remaining on Dox an additional 4 weeks (8 weeks total Dox, 4 week vehicle). CCSP/TGFα mice began losing body weight after 4 weeks of Dox. […] See FIG. 6, illustrating that TGF-α was induced with doxycycline for 8 weeks in transgenic mice. ARRY added after 4 weeks of TGF-α expression attenuated weight loss, compared to vehicle-treated mice. […] See FIG. 8, illustrating that ARRY prevents progression of TGF-α induced fibrosis as assessed by lung histology using a trichrome stain. In FIG. 8, a representative sample from 4 mice per group includes low power (4×) and higher power (10×) of pleural fibrosis. […] Lung Histology and Immunohistochemistry: Mice were killed with pentobarbital sodium (65 mg/ml) euthanasia solution (Fort Dodge Animal Health, Fort Dodge, Iowa), and lungs were inflation fixed using 4% paraformaldehyde at 25 cm H2O of pressure, and then allowed to fix overnight at 4° C. Fixed lungs were then washed with phosphate-buffered saline (PBS), dehydrated through a graded series of ethanols, and processed for paraffin embedding. […]

Experiment [4] has as its system TGF-α-induced pulmonary fibrosis. As to the kind of experiment: Prevention study: total lung collagen (Sircol Collagen Assay). It is filed as in vivo. The following applies: CCSP/TGF-α mice, twice daily for 4 weeks from time of Dox. The text has this:
To examine if ARRY prevented the physiologic effects of TGF-α-induced lung fibrosis, CCSP/TGF-α mice were given ARRY twice daily for 4 weeks while TGF-α was induced. […] More specifically, FIG. 3 illustrates that ARRY prevents TGF-α-mediated alterations in lung mechanics (*=p<0.05 compared to vehicle and ARRY-treated mice). […] Representative samples from four mice per group include low power (4×) and higher power (10×) of pleural fibrosis. […] To induce TGF-α expression, adult transgenic mice (8-12 weeks old) were placed on Doxycycline-containing drinking water (0.5 mg/ml) and food (62.5 mg/kg). Dox-containing water was replaced three times per week. Administration of […]) is a potent, highly specific, allosteric inhibitor of MEK1/2. ARRY is a second generation MEK inhibitor that targets the Ras-Raf-MEK-ERK pathway. ARRY was administered to mice twice daily by gavage, with the first dose at the time of TGF-α induction with doxycycline. Mice were then anesthetized (Isoflurane; Abbott Labs, Chicago, Ill.), and 37.5 mg/kg sterile ARRY142886 was administered by gavage using a 20 gauge feeding catheter (Harvard Apparatus, Holliston, Mass.). […] Total Lung Collagen: Total lung collagen was determined by measuring total soluble collagen (Sircol Collagen Assay, Biocolor, Ireland). […] The optical density measured with a spectrophotometer (540 nm).

Experiment [5] has the same test system. Kind of experiment: Prevention study: lung proliferation and matrix gene expression (Collagens I, III and Elastin). It is filed as in vivo. The following applies: TGF-α transgenic mice, 4 weeks twice daily, vs vehicle. How it is done:
A 4-week study was performed to evaluate the physiologic effects of MEK1/2 kinase inhibition with ARRY on TGF-α-induced pulmonary fibrosis. ARRY was administered to TGF-α transgenic mice; a model for studying pulmonary fibrosis. Endpoints included changes in lung mechanics, lung histology, lung cell proliferation and changes in matrix gene expression (Collagens I, III and Elastin). Differences in the parameters were compared between mice treated with and without ARRY. Mice which over express TGF-α that were treated with 4 weeks of vehicle (i.e. an innocuous or inert medication) developed severe lung fibrosis on histology and lung collagen measurements associated with severe lung restriction on lung mechanics. […] Together, these findings support that MEK1/2 inhibition prevents TGF-α/EGF-mediated pulmonary fibrosis, and is a possible pharmacological strategy to treat pulmonary fibrosis.

In experiment [6] the test system is established TGF-α-induced pulmonary fibrosis. Kind of experiment: Rescue study of established fibrosis: lung mechanics. It is filed as in vivo. The following applies: CCSP/TGF-α mice, 8 weeks total Dox, treatment during last 4 weeks, vs vehicle. How it is done: (§1) To determine whether the ERK/MAPK pathway mediates the progression of established fibrosis, CCSP/TGFα mice were treated with ARRY following 4 weeks of Dox, while remaining on Dox for an additional 4 weeks (8 weeks total Dox, 4 week ARRY). Controls included CCSP/TGFα mice treated with vehicle while remaining on Dox an additional 4 weeks (8 weeks total Dox, 4 week vehicle). CCSP/TGFα mice began losing body weight after 4 weeks of Dox. […] See FIG. 6, illustrating that TGF-α was induced with doxycycline for 8 weeks in transgenic mice. ARRY added after 4 weeks of TGF-α expression attenuated weight loss, compared to vehicle-treated mice.
See FIG. 7, illustrating that TGF-α was induced with doxycycline for 8 weeks in CCSP/TGF-α transgenic mice. ARRY added after 4 weeks of TGF-α expression prevented progression of alterations in lung mechanics compared to vehicle-treated mice. *=p<0.05 compared to vehicle control CSP/− mice. *#=p<0.05 compared to CCSP/TGF-α mice.
(§2) Pulmonary Mechanics: Lung mechanics were assessed on anesthetized mice using a computerized Flexi Vent system (SCIREQ, Montreal, Canada). […] The ventilation mode was changed to forced oscillatory signal (0.5-19.6 Hz), and respiratory impedance was measured. […]

Experiment [7] can be described thus: Rescue study of established fibrosis: body weight. It counts as in vivo. The following applies: CCSP/TGFα mice, 8 weeks total Dox, treatment during last 4 weeks, vs vehicle. How it is done:
as §1
(§3) Administration of ARRY142886: ARRY142886 (ARRY) is a potent, highly specific, allosteric inhibitor of MEK1/2. ARRY is a second generation MEK inhibitor that targets the Ras-Raf-MEK-ERK pathway. ARRY was administered to mice twice daily by gavage, with the first dose at the time of TGF-α induction with doxycycline. Mice were then anesthetized (Isoflurane; Abbott Labs, Chicago, Ill.), and 37.5 mg/kg sterile ARRY142886 was administered by gavage using a 20 gauge feeding catheter (Harvard Apparatus, Holliston, Mass.). Mice were treated with vehicle or ARRY twice daily for up to 4 weeks. Mice were weighed at the beginning of the study and at weekly intervals.

For experiment [8], the system named is TGF-α-induced cellular proliferation. Kind of experiment: Epithelial and mesenchymal proliferation in lung sections of CCSP/TGF-α mice. It is filed as in vivo. The following applies: twice daily by gavage, 4 days of TGF-α induction. How it is done:
ARRY was administered to CCSP/TGF-α mice (i.e., mice expressing TGF-α in the epithelium, under control of the doxycycline (Dox)-regulatable Clara cell secretory protein promoter) twice daily by gavage, with the first dose at the time of TGF-α induction with doxycycline. Mice were sacrificed after 4 days of TGF-α induction and ARRY administration.
as §3
Lung Histology and Immunohistochemistry: Mice were killed with pentobarbital sodium (65 mg/ml) euthanasia solution (Fort Dodge Animal Health, Fort Dodge, Iowa), and lungs were inflation fixed using 4% paraformaldehyde at 25 cm H2O of pressure, and then allowed to fix overnight at 4° C. […]

Experiment [9] deals with TGF-α-induced pulmonary fibrosis. As to the kind of experiment: Prevention study: lung mechanics in TGF-α-induced pulmonary fibrosis. It counts as in vivo. The following applies: CCSP/TGF-α mice, twice daily for 4 weeks from time of Dox, vs vehicle.
From the text: To examine if ARRY prevented the physiologic effects of TGF-α-induced lung fibrosis, CCSP/TGF-α mice were given ARRY twice daily for 4 weeks while TGF-α was induced. […] More specifically, FIG. 3 illustrates that ARRY prevents TGF-α-mediated alterations in lung mechanics (*=p<0.05 compared to vehicle and ARRY-treated mice). […] Representative samples from four mice per group include low power (4×) and higher power (10×) of pleural fibrosis.
To induce TGF-α expression, adult transgenic mice (8-12 weeks old) were placed on Doxycycline-containing drinking water (0.5 mg/ml) and food (62.5 mg/kg). Dox-containing water was replaced three times per week.
Administration of ARRY142886: ARRY142886 (ARRY) is a potent, highly specific, allosteric inhibitor of MEK1/2. ARRY is a second generation MEK inhibitor that targets the Ras-Raf-MEK-ERK pathway. ARRY was administered to mice twice daily by gavage, with the first dose at the time of TGF-α induction with doxycycline. […]
as §2

Experiment [10] concerns phosphorylation of ERK1/2. As to the kind of experiment: Western blot of lung homogenates for ERK1/2 phosphorylation in CCSP/TGF-α mice. The following applies: twice daily by gavage, 4 days of TGF-α induction, vs vehicle. It counts as in vivo. In general terms: In western blotting, separated proteins are transferred to a membrane and probed.
Description: Western Blots: Western blot analysis was performed on lung homogenates of CCSP/TGF-α mice treated with 4 days of Dox. Controls were littermate single transgene CCSP/− mice treated with 1 day of Dox. Protein concentrations were assessed using a Bradford Assay and protein loaded on a 4%-20% Tris/glycine SDSPAGE (Invitrogen) and electroblotted to PVDF membranes (0.45 um: Bio-Rad). Blots were blocked with 5% nonfat dry milk in TBST (10 mM Tris, pH 8, 150 mM NaCl, 0.1% Tween 20) and incubated with antibodies against total and phosphorylated Erk (Cell Signaling Technology) and proliferating cell nuclear antigen (PCNA) (Cell Signaling Technology). Blots were washed in TBST and incubated with goat anti-rabbit horse radish peroxidase conjugated (Calbiochem, EMD Biosciences) secondary antibodies and developed on film by chemiluminescence using the ECL Plus system (Amersham Biosciences). Densitometry was performed using the volume integration function on a Phosphorlmager software Imagequant 5.2 (Molecular Dynamics, Sunnyvale, Calif.) after scanning the films.
Experiment [11] concerns TGF-α-induced pulmonary fibrosis. As to the kind of experiment: Prevention study: lung histology (trichrome stain). It counts as in vivo, mice. The text has this:
To examine if ARRY prevented the physiologic effects of TGF-α-induced lung fibrosis, CCSP/TGF-α mice were given ARRY twice daily for 4 weeks while TGF-α was induced. […] More specifically, FIG. 3 illustrates that ARRY prevents TGF-α-mediated alterations in lung mechanics (*=p<0.05 compared to vehicle and ARRY-treated mice). […] Representative samples from four mice per group include low power (4×) and higher power (10×) of pleural fibrosis. […] To induce TGF-α expression, adult transgenic mice (8-12 weeks old) were placed on Doxycycline-containing drinking water (0.5 mg/ml) and food (62.5 mg/kg). Dox-containing water was replaced three times per week. Administration of […]) is a potent, highly specific, allosteric inhibitor of MEK1/2. ARRY is a second generation MEK inhibitor that targets the Ras-Raf-MEK-ERK pathway. ARRY was administered to mice twice daily by gavage, with the first dose at the time of TGF-α induction with doxycycline. Mice were then anesthetized (Isoflurane; Abbott Labs, Chicago, Ill.), and 37.5 mg/kg sterile ARRY142886 was administered by gavage using a 20 gauge feeding catheter (Harvard Apparatus, Holliston, Mass.). Mice were treated with vehicle or ARRY twice daily for up to 4 weeks. Mice were weighed at the beginning of the study and at weekly intervals. […]

Each structure is given as a SMILES string.

As for `C#Cc1cccc(Nc2ncnc3cc(OCCOC)c(OCCOC)cc23)c1` [erlotinib], the “fibrosis in the CCSP/TGF-α transgenic model” value in experiment [1] is on record as “prevented fibrosis”.
For `C=CCN(/C=C1/C(=O)O[C@H](COC)[C@@]2(C)C1=C(O)C(=O)C1=C2[C@H](OC(C)=O)C[C@]2(C)C(=O)CC[C@@H]12)CC=C` [PX-866], the “phosphorylation of ERK1/2 in treated TGF-α mice” value in [2] is on record as “remain phosphorylated”.
Turning to `Cn1cnc2c(F)c(Nc3ccc(Br)cc3Cl)c(C(=O)NOCCO)cc21` [ARRY142886], the “pulmonary fibrosis measured by lung matrix expression on lung histology” value in [3] was “reduced pulmonary fibrosis”. Moreover, in [4], the total lung collagen result was “prevents TGF-α-induced fibrosis as assessed by total lung collagen”. The “lung proliferation and matrix gene expression” value in experiment [5] is “significantly reduced lung proliferation and matrix gene expression”. Besides, in experiment [6], the “lung mechanics (compliance, airway resistance, elastance)” value is “improved lung mechanics”. For the same compound, the body weight loss entry in [7] was “Body weight loss was attenuated”. The “TGF-α-induced cellular proliferation (epithelial and mesenchymal) in lung sections” value in experiment [8] is recorded as “dose-dependent inhibition of TGF-α-induced cellular proliferation”. Also, the “lung mechanics (airway resistance, airway and tissue elastance, compliance)” value in experiment [9] was “no changes in lung mechanics”; in experiment [9] (listed as ARRY), “prevented TGFα-mediated increases in airway resistance, and airway and tissue elastance and decreases in compliance”. In addition, in experiment [10], the “phosphorylation of ERK1/2 in lung homogenates” value is “inhibited increased phosphorylation of ERK1/2”. In addition, the “lung fibrosis on lung histology” value in experiment [11] (CCSP/TGF-α mice, twice daily for 4 weeks from time of Dox, trichrome stain) is “prevents TGF-α-induced pulmonary fibrosis as demonstrated by lung histology”. For the same compound, in [11] (TGF-α transgenic mice, 4 weeks twice daily, vs vehicle), the “lung fibrosis overall (4-week prevention study)” value is reported as “complete prevention of lung fibrosis”.
Regarding `COc1cc2ncnc(Nc3ccc(F)c(Cl)c3)c2cc1OCCCN1CCOCC1` [gefitinib], the “fibrosis in the CCSP/TGF-α transgenic model” value in [1] is “prevented fibrosis”.
